{"source": "patent US20250179584A1", "about": "“PRECISION THERAPY FOR THE TREATMENT OF CANCER” (Novartis AG, priority 2022, published 2025)", "key": {"NRAS mutated melanoma [1]": {"test_system": "NRAS mutated melanoma", "settings": "cited from earlier work"}, "[2]": {"test_system": "BRAF mutant and CRAF kinases", "settings": "cited from earlier work"}, "[3]": {"test_system": "unresectable stage III/IV metastatic melanoma resistant to anti-PD (L)-1 therapy", "settings": "monotherapy, 162 patients, cited from earlier work"}, "[4]": {"test_system": "advanced melanoma with NRAS mutation", "settings": "trametinib monotherapy, 7 patients with NRAS mutation; cited from earlier work"}, "[5]": {"test_system": "KRAS G12, G13C and G13D mutant NSCLC", "settings": "single agent, second line; cited from earlier work"}, "NRAS mutated melanoma [6]": {"test_system": "NRAS mutated melanoma", "assay_type": "in vivo, human", "settings": "single agent, 10 patients, doses 400-1200 qd and 200-800 bid, data cut May 31, 2021", "from_the_text": "Clinical data further supports the pre-clinical findings."}, "[7]": {"test_system": "solid tumors (salivary gland tumor and NSCLC) harboring pan-RAS codon Q61 or G13R mutations", "assay_type": "in vivo, human", "settings": "LXH254 single agent"}, "[8]": {"test_system": "cell lines that contain a variety of mutations that activate MAPK signaling", "settings": "cited from earlier work"}, "KRAS-mutant models": {"test_system": "KRAS-mutant models", "settings": "several KRAS-mutant models, well-tolerated doses; cited from earlier work"}, "[9]": {"test_system": "pan-RAS codon Q61/G13R mutant models (NSCLC, melanoma, PDAC, rhabdomyosarcomas)", "settings": "independently of the mutated RAS gene and tissue origin"}}}
{"compound": "Cn1cnc2c(F)c(Nc3ccc(Br)cc3F)c(C(=O)NOCCO)cc21", "note": "[binimetinib]", "values": [{"measurement": "ORR", "setting": "NRAS mutated melanoma [1]; 402 patients, untreated (~79%) and previously treated with immunotherapy (~21%)", "value": 15, "unit": "%"}, {"measurement": "mOS", "setting": "NRAS mutated melanoma [1]; 402 patients", "value": 11, "unit": "months"}, {"measurement": "mPFS", "setting": "NRAS mutated melanoma [1]; 402 patients", "value": 2.8, "unit": "months"}, {"measurement": "anti-tumor activity", "setting": "NRAS mutated melanoma [1]; single agent MEK inhibitor, NEMO study", "value": "limited anti-tumor activity"}]}
{"compound": "Cc1ccc2c(Nc3cccc(Cl)c3F)nccc2c1NC(=O)c1csc2c(N)ncnc12", "note": "[Belvarafenib, 4-amino-N-(1-((3-chloro-2-fluorophenyl)amino)-6-methylisoquinolin-5-yl) thieno[3,2-d]pyrimidine-7-carboxamide]", "values": [{"measurement": "selectivity", "setting": "[2]", "value": "high selectivity"}]}
{"compound": "Ipilimumab: anti-CTLA-4 therapy", "values": [{"measurement": "objective response rate (ORR)", "setting": "[3]; irrespective of mutation status", "value": 13, "unit": "%"}, {"measurement": "median overall survival (mOS)", "setting": "[3]", "value": 8.8, "unit": "months"}, {"measurement": "median progression free survival (PFS)", "setting": "[3]", "value": 2.6, "unit": "months"}]}
{"compound": "CC(=O)Nc1cccc(-n2c(=O)n(C3CC3)c(=O)c3c(Nc4ccc(I)cc4F)n(C)c(=O)c(C)c32)c1", "note": "[trametinib, N-(3-{3-cyclopropyl-5-[(2-fluoro-4-iodophenyl)amino]-6,8-dimethyl-2,4,7-trioxo-3,4,6,7-tetrahydropyrido[4,3-d]pyrimidin-1 (2H)-yl}phenyl) acetamide]", "values": [{"measurement": "responses", "setting": "[4]", "value": "no responses"}, {"measurement": "superiority against standard of care docetaxel", "setting": "[5]", "value": "failed to demonstrate superiority"}]}
{"compound": "Cc1ccc(NC(=O)c2ccnc(C(F)(F)F)c2)cc1-c1cc(OCCO)nc(N2CCOCC2)c1", "note": "[naporafenib, N-(3-(2-(2-hydroxyethoxy)-6-morpholino-pyridin-4-yl)-4-methylphenyl)-2-(trifluoromethyl) isonicotinamide]", "values": [{"measurement": "SDs (stable disease)", "setting": "NRAS mutated melanoma [6]", "value": 4}, {"measurement": "responses", "setting": "NRAS mutated melanoma [6]", "value": "no responses"}, {"measurement": "response to single agent therapy", "setting": "[7]", "value": "exceptional responders"}, {"measurement": "anti-proliferative activity", "setting": "[8]", "value": "demonstrated anti-proliferative activity"}, {"measurement": "tumor response in vivo", "setting": "KRAS-mutant models", "value": "tumor regression"}, {"measurement": "activity in non-clinical models", "setting": "[9]", "value": "consistent activity"}]}
